Laboratory results from PubChem BioAssay (NCI).
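GI50: concentration for 50% inhibition of growth. TGI is the concentration that stops growth completely.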

How the values were obtained:
Assay in all cases: NCI-60 cell line screen, 384-well format
[1] = test system: 786-0 renal
[2] = test system: A498 renal
[3] = test system: A549 NSCLC
[4] = test system: ACHN renal
[5] = test system: BT-549 breast
[6] = test system: CAKI-1 renal
[7] = test system: CCRF-CEM leukemia
[8] = test system: COLO 205 colon
[9] = test system: DU-145 prostate
[10] = test system: HCC-2998 colon
[11] = test system: HCT-116 colon
[12] = test system: HCT-15 colon
[13] = test system: HL-60(TB) leukemia
[14] = test system: HOP-62 NSCLC
[15] = test system: HOP-92 NSCLC
[16] = test system: HT29 colon
[17] = test system: IGROV1 ovarian
[18] = test system: K-562 leukemia
[19] = test system: KM12 colon
[20] = test system: LOX IMVI melanoma
[21] = test system: M14 melanoma
[22] = test system: MALME-3M melanoma
[23] = test system: MCF7 breast
[24] = test system: MDA-MB-231 breast
[25] = test system: MDA-MB-435 melanoma
[26] = test system: MDA-MB-468 breast
[27] = test system: MOLT-4 leukemia
[28] = test system: NCI-H226 lung
[29] = test system: NCI-H23 lung
[30] = test system: NCI-H322M lung
[31] = test system: NCI-H460 NSCLC
[32] = test system: NCI-H522 lung
[33] = test system: NCI/ADR-RES ovarian
[34] = test system: OVCAR-3 ovarian
[35] = test system: OVCAR-4 ovarian
[36] = test system: OVCAR-5 ovarian
[37] = test system: OVCAR-8 ovarian
[38] = test system: PC-3 prostate
[39] = test system: RPMI-8226 leukemia
[40] = test system: RXF 393 renal
[41] = test system: SF-268 CNS
[42] = test system: SF-295 CNS
[43] = test system: SF-539 CNS
[44] = test system: SK-MEL-2 melanoma
[45] = test system: SK-MEL-28 melanoma
[46] = test system: SK-MEL-5 melanoma
[47] = test system: SK-OV-3 ovarian
[48] = test system: SN12C renal
[49] = test system: SNB-19 CNS
[50] = test system: SR leukemia
[51] = test system: SW-620 colon
[52] = test system: T-47D breast
[53] = test system: TK-10 renal
[54] = test system: U251 glioblastoma
[55] = test system: UACC-257 melanoma
[56] = test system: UACC-62 melanoma
[57] = test system: UO-31 renal

CNC[C@@H](NC(=O)c1ccc(-c2nc([C@H]3CC[C@H](O)[C@@H](F)C3)cnc2N)cc1F)c1cc(F)cc(Br)c1
GI50 [1]: 15 µM
TGI [1]: 28.3 µM
GI50 [2]: 16.6 µM
TGI [2]: 30.3 µM
GI50 [3]: 17 µM
TGI [3]: 31.1 µM
GI50 [4]: 16.9 µM
TGI [4]: 30.6 µM
GI50 [5]: 13.7 µM
TGI [5]: 26.6 µM
GI50 [6]: 16.9 µM
TGI [6]: 30.9 µM
GI50 [7]: 16.8 µM
TGI [7]: 30.5 µM
GI50 [8]: 16.4 µM
TGI [8]: 30.1 µM
GI50 [9]: 18.5 µM
TGI [9]: 32.8 µM
GI50 [10]: 17.2 µM
TGI [10]: 31 µM
GI50 [11]: 16.8 µM
TGI [11]: 30.6 µM
GI50 [12]: 19.4 µM
TGI [12]: 33.7 µM
GI50 [13]: 13.9 µM
TGI [13]: 26.9 µM
GI50 [14]: 17.8 µM
TGI [14]: 31.7 µM
GI50 [15]: 16.8 µM
TGI [15]: 30.6 µM
GI50 [16]: 16.1 µM
TGI [16]: 29.9 µM
GI50 [17]: 17.9 µM
TGI [17]: 34.5 µM
GI50 [18]: 16.8 µM
TGI [18]: 30.5 µM
GI50 [19]: 17.5 µM
TGI [19]: 31.5 µM
GI50 [20]: 23.1 µM
TGI [20]: 37.7 µM
GI50 [21]: 18.2 µM
TGI [21]: 32.2 µM
GI50 [22]: 17.1 µM
TGI [22]: 30.9 µM
GI50 [23]: 18 µM
TGI [23]: 31.9 µM
GI50 [24]: 20.1 µM
TGI [24]: 34.4 µM
GI50 [25]: 20.3 µM
TGI [25]: 34.7 µM
GI50 [26]: 18.3 µM
TGI [26]: 32.2 µM
GI50 [27]: 17.7 µM
TGI [27]: 31.6 µM
GI50 [28]: 18.6 µM
TGI [28]: 33 µM
GI50 [29]: 19.4 µM
TGI [29]: 36.9 µM
GI50 [30]: 18.7 µM
TGI [30]: 33.4 µM
GI50 [31]: 18.8 µM
TGI [31]: 33.2 µM
GI50 [32]: 18.2 µM
TGI [32]: 32.1 µM
GI50 [33]: 48.5 µM
TGI [33]: > 100 µM
GI50 [34]: 18 µM
TGI [34]: 32 µM
GI50 [35]: 19.9 µM
TGI [35]: 36.1 µM
GI50 [36]: 17.5 µM
TGI [36]: 33.5 µM
GI50 [37]: 18.9 µM
TGI [37]: 33.1 µM
GI50 [38]: 17.6 µM
TGI [38]: 31.5 µM
GI50 [39]: 12.4 µM
TGI [39]: 24.9 µM
GI50 [40]: 15.3 µM
TGI [40]: 28.7 µM
GI50 [41]: 17.2 µM
TGI [41]: 31.1 µM
GI50 [42]: 18.5 µM
TGI [42]: 32.6 µM
GI50 [43]: 17.2 µM
TGI [43]: 31 µM
GI50 [44]: 20.5 µM
TGI [44]: 34.8 µM
GI50 [45]: 18.8 µM
TGI [45]: 33 µM
GI50 [46]: 20.8 µM
TGI [46]: 35.2 µM
GI50 [47]: 16.9 µM
TGI [47]: 30.7 µM
GI50 [48]: 18.5 µM
TGI [48]: 32.5 µM
GI50 [49]: 19.1 µM
TGI [49]: 33.3 µM
GI50 [50]: 12.1 µM
TGI [50]: 24.5 µM
GI50 [51]: 20.6 µM
TGI [51]: 35.1 µM
GI50 [52]: 22.5 µM
TGI [52]: 37.2 µM
GI50 [53]: 17 µM
TGI [53]: 31.4 µM
GI50 [54]: 17.5 µM
TGI [54]: 31.4 µM
GI50 [55]: 14.6 µM
TGI [55]: 27.8 µM
GI50 [56]: 16.7 µM
TGI [56]: 30.5 µM
GI50 [57]: 1.39 µM
TGI [57]: 2.87 µM
